Results on 23 compounds are retold here after patent publication US20250042895A1, “INHIBITORS OF ULK1 AND METHODS OF USE” (H. LEE MOFFITT CANCER CENTER AND RESEARCH INSTITUTE, INC., priority 2021, published 2025).

Some results are limits rather than exact numbers.

The target in one assay is T1, GST-ULK1 (Homo sapiens, UniProt O75385).
T1 sequence (O75385 1-1050): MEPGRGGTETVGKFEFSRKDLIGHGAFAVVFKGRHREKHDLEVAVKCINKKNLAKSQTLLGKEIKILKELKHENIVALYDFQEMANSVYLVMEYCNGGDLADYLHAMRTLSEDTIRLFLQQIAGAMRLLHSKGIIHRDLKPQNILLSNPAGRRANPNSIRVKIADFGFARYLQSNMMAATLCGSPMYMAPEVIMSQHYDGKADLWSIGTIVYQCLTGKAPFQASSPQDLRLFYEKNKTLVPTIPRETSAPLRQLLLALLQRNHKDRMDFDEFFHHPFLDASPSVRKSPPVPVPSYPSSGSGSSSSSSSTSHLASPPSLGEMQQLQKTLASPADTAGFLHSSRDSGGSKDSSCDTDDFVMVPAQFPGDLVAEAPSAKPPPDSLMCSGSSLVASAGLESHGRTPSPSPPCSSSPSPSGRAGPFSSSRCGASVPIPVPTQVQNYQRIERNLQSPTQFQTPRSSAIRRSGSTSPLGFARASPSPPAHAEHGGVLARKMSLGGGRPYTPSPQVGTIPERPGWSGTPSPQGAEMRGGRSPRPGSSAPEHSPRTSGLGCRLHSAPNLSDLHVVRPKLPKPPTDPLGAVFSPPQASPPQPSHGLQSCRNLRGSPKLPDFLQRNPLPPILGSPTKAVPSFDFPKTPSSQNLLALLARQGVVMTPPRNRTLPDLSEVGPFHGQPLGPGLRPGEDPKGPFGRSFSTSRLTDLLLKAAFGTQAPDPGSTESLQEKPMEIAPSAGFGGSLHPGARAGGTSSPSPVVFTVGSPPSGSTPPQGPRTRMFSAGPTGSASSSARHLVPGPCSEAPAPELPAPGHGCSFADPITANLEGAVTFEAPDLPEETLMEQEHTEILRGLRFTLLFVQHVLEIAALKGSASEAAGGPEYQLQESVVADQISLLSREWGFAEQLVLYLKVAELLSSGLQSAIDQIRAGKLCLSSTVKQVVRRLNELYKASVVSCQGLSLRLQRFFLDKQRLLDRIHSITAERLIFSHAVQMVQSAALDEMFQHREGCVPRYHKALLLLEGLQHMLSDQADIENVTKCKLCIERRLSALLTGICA
Kind of assay: LanthaScreen ULK1 inhibitor assay. Type of assay: biochemical. The following applies: 5 nM GST-ULK1, 30 nM tracer, 20 μM ATP, 1 hr room temperature.

A further assay addresses T2, ULK1-nanoluc (Homo sapiens, UniProt O75385).
T2 construct: host or cells: H2030 cells (ATCC)
T2 sequence (O75385 1-1050): T1 sequence (O75385 1-1050)
Kind of assay: NanoBRET target engagement in live cells. Particulars: H2030 cells transfected with ULK1-nanoluc, Tracer K10, 2 hr. It is filed as cell-based.

In the next assay the target is T3, ULK1 kinase domain (Homo sapiens, UniProt O75385).
T3 construct: The protein expression construct of ULK1 kinase domain (1-283) was cloned; 6His-Sumo (N, cleaved yes); made in house; host or cells: E. coli BL21 star, co-expressed with lambda phosphatase
T3 sequence (O75385 1-283): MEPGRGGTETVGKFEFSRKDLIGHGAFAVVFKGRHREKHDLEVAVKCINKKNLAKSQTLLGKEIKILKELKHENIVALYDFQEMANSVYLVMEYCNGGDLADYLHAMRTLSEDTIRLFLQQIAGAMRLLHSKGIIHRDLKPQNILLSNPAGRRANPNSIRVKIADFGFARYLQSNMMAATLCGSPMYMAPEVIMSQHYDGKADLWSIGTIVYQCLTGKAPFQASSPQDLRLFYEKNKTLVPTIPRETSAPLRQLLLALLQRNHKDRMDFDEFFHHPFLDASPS
Kind of assay: Differential scanning fluorimetry (thermal shift). Type of assay: binding. The following applies: 2 μM ULK1 kinase domain, 50 μM compound, vs DMSO reference.

The next assay has as its target T4, ULK1 kinase (Homo sapiens, UniProt O75385).
T4 construct: purchased Reaction Biology
T4 sequence (O75385 1-1050): T1 sequence (O75385 1-1050)
Kind of assay: Radiometric HotSpot kinase assay (Reaction Biology). Type of assay: biochemical. The following applies: activity-based ULK1 kinase assay.

As a reminder, the IC50 is the concentration needed to halve the response being measured. A low value points to greater potency in that assay. By EC50 is commonly meant the concentration that produces a half-maximal response. As to `C[C@@H](CO)NC(=O)c1cc(-c2cnc3[nH]c(C4=CCNC4)cc3c2)cs1` [Compound 104], on GST-ULK1, it took 29 nM to reach half-maximal inhibition (IC50). For the same compound, the midpoint of the response on ULK1-nanoluc, the EC50, lay at 4290 nM.

Usually ΔTm stands for the change in melting temperature against a reference sample. For `FC(F)(F)c1cnc2[nH]c(C3=CCOCC3)cc2c1NCCN1CCOCC1` [Compound 89, 2-(3,6-dihydro-2H-pyran-4-yl)-N-(2-morpholinoethyl)-5-(trifluoromethyl)-1H-pyrrolo[2,3-b]pyridin-4-amine], the ΔTm at 50 µM at ULK1 kinase domain is 8.13 °C. Moreover, the 50% inhibitory concentration (IC50) is 37 nM at ULK1 kinase and 92 nM at GST-ULK1. The compound further yielded an EC50 at ULK1-nanoluc of 1160 nM.

Compound `FC1(F)CN(c2c(C(F)(F)F)cnc3[nH]c(C4=CCNC4)cc23)C1` [Compound 140] came in with an IC50 at GST-ULK1 of 1 nM. This compound also showed an EC50 at ULK1-nanoluc of 86 nM.

At GST-ULK1, `C[C@H](CO)NC(=O)c1cc(-c2cnc3[nH]c(C4=CCCNC4)cc3c2)cs1` [Compound 103] registered an IC50 of 36 nM. At ULK1-nanoluc, this compound gave an EC50 of 1400 nM.

On to `O=C(NC[C@H](O)CO)c1cccc(-c2cnc3[nH]c(-c4ccc(F)cc4)cc3c2)n1` [Compound 58, (S)—N-(2,3-Dihydroxypropyl)-6-(2-(4-fluorophenyl)-1H-pyrrolo[2,3-b]pyridin-5-yl)-picolinamide], for which the ΔTm at 50 µM at ULK1 kinase domain turned out to be 9.22 °C. Besides, the IC50 against ULK1 kinase came out at 22 nM; on GST-ULK1 it was 67 nM. Moreover, on ULK1-nanoluc, the midpoint of the response, the EC50, lay at 2370 nM.

`C[C@@H](CO)NC(=O)c1nc(-c2cnc3[nH]c(-c4ccc(F)cc4)cc3c2)cs1` [Compound 76, (S)-4-(2-(4-fluorophenyl)-1H-pyrrolo[2,3-b]pyridin-5-yl)-N-(1-hydroxypropan-2-yl)thiazole-2-carboxamide]: the ΔTm at 50 µM at ULK1 kinase domain came out at 7.56 °C. Besides, the IC50 stood at 44 nM against ULK1 kinase and 25 nM on GST-ULK1. On ULK1-nanoluc, this compound had an EC50 of 541 nM.

In turn, `C[C@@H](CO)NC(=O)c1cc(-c2cnc3[nH]c(C4=CCNCC4)cc3c2)cs1` [Compound 106] gave an IC50 against GST-ULK1 of 16 nM. On ULK1-nanoluc, this compound showed an EC50 of 1130 nM.

Regarding `O=C(NCC1(O)CC1)c1nc(-c2cnc3[nH]c(-c4ccc(F)cc4)cc3c2)cs1` [Compound 73, 4-(2-(4-fluorophenyl)-1H-pyrrolo-[2,3-b]pyridin-5-yl)-N-((1-hydroxy-cyclopropyl)methyl)thiazole-2-carboxamide], the ΔTm at 50 µM on ULK1 kinase domain worked out at 7.72 °C. Besides, the IC50 against ULK1 kinase worked out at 10 nM; against GST-ULK1, 3 nM. On ULK1-nanoluc, this compound showed an EC50 of 195 nM.

For `CN1CC=C(c2cc3c(NC4CCNC4)c(C(F)(F)F)cnc3[nH]2)CC1` (stereo not drawn) [Compound 98, 2-(1-methyl-1,2,3,6-tetrahydropyridin-4-yl)-N-(pyrrolidin-3-yl)-5-(trifluoromethyl)-1H-pyrrolo[2,3-b]pyridin-4-amine], on ULK1 kinase domain, the ΔTm at 50 µM was determined as 10.3 °C. Also, the figures for the IC50 on ULK1 kinase and against GST-ULK1 were 144 nM and 57 nM, respectively. Also, on ULK1-nanoluc, the EC50 was 184 nM.

Consider `O=C(NCC1(O)CC1)c1cc(-c2cnc3[nH]c(C4=CNCCC4)cc3c2)cs1` [Compound 108], for which the 50% inhibitory concentration (IC50) against GST-ULK1 is 26 nM. Moreover, on ULK1-nanoluc, the EC50 was 219 nM.

On to `C[C@@H](CO)NC(=O)c1cc(-c2cnc3[nH]c(C4=CCN(C)CC4)cc3c2)cs1` [Compound 107], for which the concentration for half-maximal inhibition (IC50) at GST-ULK1 is 19 nM. The compound also came in with an EC50 at ULK1-nanoluc of 391 nM.

`CC[C@@H](CO)NC(=O)c1nc(-c2cnc3[nH]c(-c4ccc(F)cc4)cc3c2)cs1` [Compound 61, (S)-4-(2-(4-Fluorophenyl)-1H-pyrrolo[2,3-b]pyridin-5-yl)-N-(1-hydroxybutan-2-yl)-thiazole-2-carboxamide]: the ΔTm at 50 µM at ULK1 kinase domain worked out at 9.31 °C. Besides, the IC50 against ULK1 kinase worked out at 8 nM; against GST-ULK1, 7 nM. On ULK1-nanoluc, the EC50 was determined as 131 nM.

Turning to `CC[C@@H](CO)NC(=O)c1cccc(-c2cnc3[nH]c(-c4ccc(F)cc4)cc3c2)n1` [Compound 59, (S)-6-(2-(4-Fluorophenyl)-1H-pyrrolo[2,3-b]pyridin-5-yl)-N-(1-hydroxybutan-2-yl)-picolinamide], on ULK1 kinase domain, the ΔTm at 50 µM amounted to 11 °C. Moreover, the results for the IC50 against ULK1 kinase and against GST-ULK1 were 7 nM and 10 nM, respectively. Also, on ULK1-nanoluc, the EC50 was found to be 149 nM.

In the case of `O=C(NCC(F)(F)F)c1cc(-c2cnc3[nH]c(-c4ccc(OCCN5CCCCC5)cc4)cc3c2)cs1` [Compound 38, 4-(2-(4-(2-(Piperidin-1-yl)ethoxy)phenyl)-1H-pyrrolo[2,3-b]pyridin-5-yl)-N-(2,2,2-trifluoroethyl)thiophene-2-carboxamide], the ΔTm at 50 µM on ULK1 kinase domain turned out to be 12.8 °C. The 50% inhibitory concentration (IC50) came out at 15 nM at ULK1 kinase and 14 nM on GST-ULK1. The compound also showed an EC50 on ULK1-nanoluc of 22 nM.

For the compound `CN1CC=C(c2cc3c(NCCN4CCNCC4)c(C(F)(F)F)cnc3[nH]2)CC1` [Compound 101, 2-(1-methyl-1,2,3,6-tetrahydropyridin-4-yl)-N-(2-(piperazin-1-yl)ethyl)-5-(trifluoromethyl)-1H-pyrrolo[2,3-b]pyridin-4-amine], on ULK1 kinase domain, the ΔTm at 50 µM was found to be 11 °C. The results for the concentration for half-maximal inhibition (IC50) at ULK1 kinase and against GST-ULK1 were 131 nM and 50 nM, respectively. This compound also gave a half-maximal effective concentration (EC50) on ULK1-nanoluc of 157 nM.

Consider `O=C(NCC(F)F)c1nc(-c2cnc3[nH]c(-c4ccc(F)cc4)cc3c2)cs1` [Compound 79, N-(2,2-difluoroethyl)-4-(2-(4-fluorophenyl)-1H-pyrrolo[2,3-b]-pyridin-5-yl)thiazole-2-carboxamide], for which, on ULK1 kinase domain, the ΔTm at 50 µM turned out to be 5.45 °C. Moreover, the IC50 against ULK1 kinase came to 12 nM; against GST-ULK1 it was 16 nM. On ULK1-nanoluc, this compound yielded an EC50 of 156 nM.

`O=C(NCC1CC1)c1nc(-c2cnc3[nH]c(-c4ccc(F)cc4)cc3c2)cs1` [Compound 71, N-(cyclopropylmethyl)-4-(2-(4-fluorophenyl)-1H-pyrrolo[2,3-b]-pyridin-5-yl)thiazole-2-carboxamide]: the ΔTm at 50 µM on ULK1 kinase domain was 3.73 °C. Besides, the IC50 is 14 nM on ULK1 kinase and 39 nM on GST-ULK1. The compound further returned an EC50 on ULK1-nanoluc of 414 nM.

As to `C[C@H](CO)NC(=O)c1cc(-c2cnc3[nH]c(C4=CCNC4)cc3c2)cs1` [Compound 105], the IC50 against GST-ULK1 is 139 nM. Further, the EC50 on ULK1-nanoluc is ≥ 10000 nM.

`CN1CC=C(c2cc3c(N4CC(F)(F)C4)c(C(F)(F)F)cnc3[nH]2)CC1` [Compound 100, 4-(3,3-difluoroazetidin-1-yl)-2-(1-methyl-1,2,3,6-tetrahydropyridin-4-yl)-5-(trifluoromethyl)-1H-pyrrolo[2,3-b]pyridine]: the ΔTm at 50 µM at ULK1 kinase domain came to 4.99 °C. Further, the IC50 against ULK1 kinase amounted to 171 nM; against GST-ULK1, 218 nM.

On to `O=C(NC[C@@H](O)CO)c1cccc(-c2cnc3[nH]c(-c4ccc(F)cc4)cc3c2)n1` [Compound 52, (R)—N-(2,3-Dihydroxypropyl)-6-(2-(4-fluorophenyl)-1H-pyrrolo[2,3-b]pyridin-5-yl)-picolinamide], for which the ΔTm at 50 µM at ULK1 kinase domain amounted to 8.86 °C. The IC50 at ULK1 kinase is 45 nM; against GST-ULK1, 106 nM.

With `FC(F)(F)c1cnc2[nH]c(C3CCOCC3)cc2c1NC1CCNC1` (stereo not drawn) [Compound 83, N-(pyrrolidin-3-yl)-2-(tetrahydro-2H-pyran-4-yl)-5-(trifluoromethyl)-1H-pyrrolo[2,3-b]-pyridin-4-amine], the ΔTm at 50 µM on ULK1 kinase domain was 6.81 °C. The IC50 was determined as 401 nM against ULK1 kinase and 208 nM against GST-ULK1.

In the case of `O=C(NCC(O)C(F)(F)F)c1cccc(-c2cnc3[nH]c(-c4ccc(F)cc4)cc3c2)n1` (stereo not drawn) [Compound 57, 6-(2-(4-Fluorophenyl)-1H-pyrrolo[2,3-b]pyridin-5-yl)-N-(3,3,3-trifluoro-2-hydroxy-propyl)picolinamide], the thermal shift (ΔTm) at 50 µM on ULK1 kinase domain stood at 8.73 °C. Besides, the IC50 on ULK1 kinase amounted to 49 nM; against GST-ULK1, 20 nM.

For `C[C@@H](CO)NC(=O)c1cc(-c2cnc3[nH]c(C4=CCCNC4)cc3c2)cs1` [Compound 102], the IC50 against GST-ULK1 was 15 nM. On ULK1-nanoluc, this compound registered an EC50 of 952 nM.
